From patent US9730944B2, “Antiviral activity of novel bicyclic heterocycles” (priority 2010, dated 2017)
In brackets after ≈: the same amount, converted by molar mass.

Assays:
hRV-2 = test: Rhinovirus type 2 antiviral assay in Hela Rh cells, MTS readout; type: cell-based, Human rhinovirus; conditions: Rhinovirus A, HRV2, HeLa Rh, Hela Rh cells; read-out: hRV-2 EC50
hRV-9 = test: Rhinovirus type 9 antiviral assay in Hela Rh cells, MTS readout; type: cell-based, Human rhinovirus; conditions: Human rhinovirus sp., HRV9, HeLa Rh, Hela Rh cells; read-out: hRV-9 EC50
hRV-14 = test: Rhinovirus type 14 antiviral assay in Hela Rh cells, MTS readout; type: cell-based, Human rhinovirus; conditions: Rhinovirus B, HRV14, HeLa Rh, Hela Rh cells; read-out: hRV-14 EC50
hRV-15 = test: Rhinovirus type 15 antiviral assay in Hela Rh cells, MTS readout; type: cell-based, Human rhinovirus; conditions: Human rhinovirus sp., HRV15, HeLa Rh, Hela Rh cells; read-out: hRV-15 EC50
hRV-29 = test: Rhinovirus type 29 antiviral assay in Hela Rh cells, MTS readout; type: cell-based; conditions: Human rhinovirus sp., HRV29, HeLa Rh, Hela Rh cells; read-out: hRV-29 EC50
hRV-39 = test: Rhinovirus type 39 antiviral assay in Hela Rh cells, MTS readout; type: cell-based, Human rhinovirus; conditions: Human rhinovirus sp., HRV39, HeLa Rh, Hela Rh cells; read-out: hRV-39 EC50
hRV-41 = test: Rhinovirus type 41 antiviral assay in Hela Rh cells, MTS readout; type: cell-based, Human rhinovirus; conditions: Human rhinovirus sp., HRV41, HeLa Rh, Hela Rh cells; read-out: hRV-41 EC50
hRV-63 = test: Rhinovirus type 63 antiviral assay in Hela Rh cells, MTS readout; type: cell-based, Human rhinovirus; conditions: Human rhinovirus sp., HRV63, HeLa Rh, Hela Rh cells; read-out: hRV-63 EC50
hRV-70 = test: Rhinovirus type 70 antiviral assay in Hela Rh cells, MTS readout; type: cell-based, Human rhinovirus; conditions: Human rhinovirus sp., HRV70, HeLa Rh, Hela Rh cells; read-out: hRV-70 EC50
hRV-72 = test: Rhinovirus type 72 antiviral assay in Hela Rh cells, MTS readout; type: cell-based, Human rhinovirus; conditions: Human rhinovirus sp., HRV72, HeLa Rh, Hela Rh cells; read-out: hRV-72 EC50
hRV-85 = test: Rhinovirus type 85 antiviral assay in Hela Rh cells, MTS readout; type: cell-based, Human rhinovirus; conditions: Human rhinovirus sp., HRV85, HeLa Rh, Hela Rh cells; read-out: hRV-85 EC50
hRV-86 = test: Rhinovirus type 86 antiviral assay in Hela Rh cells, MTS readout; type: cell-based, Human rhinovirus; conditions: Human rhinovirus sp., HRV86, HeLa Rh, Hela Rh cells; read-out: hRV-86 EC50
[1] = Cytostatic/cytotoxic effect in Hela Rh cells (rhinovirus methodology, MTS); conditions: human, CC50, Hela Rh cells
hRV-42 = test: Rhinovirus type 42 antiviral assay in Hela Rh cells, MTS readout; type: cell-based, Human rhinovirus; conditions: Human rhinovirus sp., HRV42, HeLa Rh, Hela Rh cells; read-out: hRV-42 EC50
hRV-45 = test: Rhinovirus type 45 antiviral assay in Hela Rh cells, MTS readout; type: cell-based, Human rhinovirus; conditions: Human rhinovirus sp., HRV45, HeLa Rh, Hela Rh cells; read-out: hRV-45 EC50

Compound | EC50 (hRV-2) | EC50 (hRV-9) | EC50 (hRV-14) | EC50 (hRV-15) | EC50 (hRV-29) | EC50 (hRV-39) | EC50 (hRV-41) | EC50 (hRV-63) | EC50 (hRV-70) | EC50 (hRV-72) | EC50 (hRV-85) | EC50 (hRV-86) | CC50 [1] | EC50 (hRV-42) | EC50 (hRV-45)
Nc1nc(N2CCN(C(=O)COc3cccc(Cl)c3)CC2)c2nc(CCc3ccc(F)cc3)sc2n1 [Example 228, 1-(4-(5-amino-2-(4-fluorophenethyl)thiazolo[5,4-d]pyrimidin-7-yl)piperazin-1-yl)-2-(3-chlorophenoxy)ethanone] | 1.27 µg/mL (≈ 2.41 µM) | 1.16 µg/mL (≈ 2.2 µM) | 9.21 µg/mL (≈ 17.5 µM) | 43.9 µg/mL (≈ 83.2 µM) | 1.38 µg/mL (≈ 2.62 µM) | 1.28 µg/mL (≈ 2.43 µM) | > 50 µg/mL | 13.8 µg/mL (≈ 26.1 µM) | 10 µg/mL (≈ 19.1 µM) | > 50 µg/mL | 4.14 µg/mL (≈ 7.86 µM) | 4.86 µg/mL (≈ 9.22 µM) | > 50 µg/mL | – | –
Cc1ccc(CCc2nc3c(N4CCN(C(=O)COc5ccc(Cl)cc5)CC4)nc(N)nc3s2)cc1 [Example 260, 1-(4-(5-amino-2-(4-methylphenethyl)thiazolo[5,4-d]pyrimidin-7-yl)piperazin-1-yl)-2-(4-chlorophenoxy)ethanone] | – | > 50 µg/mL | > 50 µg/mL | > 50 µg/mL | > 50 µg/mL | 13 µg/mL (≈ 24.8 µM) | > 50 µg/mL | 27.9 µg/mL (≈ 53.3 µM) | > 50 µg/mL | > 50 µg/mL | 1.35 µg/mL (≈ 2.58 µM) | > 50 µg/mL | > 50 µg/mL | > 50 µg/mL | 2.46 µg/mL (≈ 4.7 µM)
Nc1nc(N2CCN(C(=O)COc3ccc(Cl)cc3)CC2)c2nc(CCCCc3ccc(F)cc3)sc2n1 [Example 292, 1-(4-(5-amino-2-(4-(4-fluorophenyl)butyl)thiazolo[5,4-d]pyrimidin-7-yl)piperazin-1-yl)-2-(4-chlorophenoxy)ethanone] | 13.6 µg/mL (≈ 24.6 µM) | > 50 µg/mL | > 50 µg/mL | > 50 µg/mL | > 50 µg/mL | 39.4 µg/mL (≈ 70.9 µM) | > 50 µg/mL | > 50 µg/mL | > 50 µg/mL | > 50 µg/mL | 10.3 µg/mL (≈ 18.6 µM) | > 50 µg/mL | > 50 µg/mL | > 50 µg/mL | > 50 µg/mL
Nc1nc(N2CCN(C(=O)COc3ccc(F)cc3)CC2)c2nc(-c3ccc(F)cc3)sc2n1 [Example 233, 1-(4-(5-amino-2-(4-fluorophenyl)thiazolo[5,4-d]pyrimidin-7-yl)piperazin-1-yl)-2-(4-fluorophenoxy)ethanone] | < 0.02 µg/mL | < 0.02 µg/mL | < 0.02 µg/mL | < 0.02 µg/mL | < 0.02 µg/mL | < 0.02 µg/mL | < 0.39 µg/mL | < 0.39 µg/mL | < 0.39 µg/mL | 0.88 µg/mL (≈ 1.82 µM) | < 0.39 µg/mL | < 0.39 µg/mL | > 50 µg/mL | < 0.39 µg/mL | < 0.39 µg/mL
CCCCCc1nc2c(N3CCN(C(=O)COc4ccc(Cl)cc4)CC3)nc(N)nc2s1 [Example 297, 1-(4-(5-amino-2-pentylthiazolo[5,4-d]pyrimidin-7-yl)piperazin-1-yl)-2-(4-chlorophenoxy)ethanone] | – | 0.14 µg/mL (≈ 0.295 µM) | 0.4 µg/mL (≈ 0.842 µM) | 0.38 µg/mL (≈ 0.8 µM) | 0.13 µg/mL (≈ 0.274 µM) | 0.08 µg/mL (≈ 0.168 µM) | 1.06 µg/mL (≈ 2.23 µM) | 0.53 µg/mL (≈ 1.12 µM) | 4.31 µg/mL (≈ 9.07 µM) | 2.46 µg/mL (≈ 5.18 µM) | 1.01 µg/mL (≈ 2.13 µM) | 2.42 µg/mL (≈ 5.09 µM) | > 50 µg/mL | 4.45 µg/mL (≈ 9.37 µM) | 2.29 µg/mL (≈ 4.82 µM)
Nc1nc(N2CCN(C(=O)COc3ccc(O)cc3)CC2)c2nc(CCc3ccc(F)cc3)sc2n1 [Example 224, 1-(4-(5-amino-2-(4-fluorophenethyl)thiazolo[5,4-d]pyrimidin-7-yl)piperazin-1-yl)-2-(4-hydroxyphenoxy)ethanone] | 0.66 µg/mL (≈ 1.3 µM) | 0.89 µg/mL (≈ 1.75 µM) | 3.44 µg/mL (≈ 6.76 µM) | 2.32 µg/mL (≈ 4.56 µM) | 0.49 µg/mL (≈ 0.963 µM) | 0.32 µg/mL (≈ 0.629 µM) | 2.26 µg/mL (≈ 4.44 µM) | 25.4 µg/mL (≈ 49.8 µM) | 8.62 µg/mL (≈ 16.9 µM) | > 50 µg/mL | 2.09 µg/mL (≈ 4.11 µM) | 20 µg/mL (≈ 39.4 µM) | > 50 µg/mL | > 50 µg/mL | 4.55 µg/mL (≈ 8.95 µM)
COc1ccc(OCC(=O)N2CCN(c3nc(N)nc4sc(Cc5ccc(F)cc5)nc34)CC2)cc1 [Example 230, 1-(4-(5-amino-2-(4-fluorobenzyl)thiazolo[5,4-d]pyrimidin-7-yl)piperazin-1-yl)-2-(4-methoxyphenoxy)ethanone] | – | 0.09 µg/mL (≈ 0.177 µM) | 0.39 µg/mL (≈ 0.767 µM) | 0.38 µg/mL (≈ 0.747 µM) | 0.04 µg/mL (≈ 0.0787 µM) | 0.04 µg/mL (≈ 0.0787 µM) | 0.58 µg/mL (≈ 1.14 µM) | 0.54 µg/mL (≈ 1.06 µM) | 2.37 µg/mL (≈ 4.66 µM) | 8.55 µg/mL (≈ 16.8 µM) | 0.61 µg/mL (≈ 1.2 µM) | 2.36 µg/mL (≈ 4.64 µM) | > 50 µg/mL | < 0.39 µg/mL | 1.13 µg/mL (≈ 2.22 µM)
COc1ccc(OCC(=O)N2CCN(c3nc(N)nc4sc(CCc5ccc(C)cc5)nc34)CC2)cc1 [Example 259, 1-(4-(5-amino-2-(4-methylphenethyl)thiazolo[5,4-d]pyrimidin-7-yl)piperazin-1-yl)-2-(4-methoxyphenoxy)ethanone] | 0.48 µg/mL (≈ 0.925 µM) | 0.35 µg/mL (≈ 0.675 µM) | > 50 µg/mL | > 50 µg/mL | 0.41 µg/mL (≈ 0.791 µM) | 0.32 µg/mL (≈ 0.617 µM) | > 50 µg/mL | 18.3 µg/mL (≈ 35.3 µM) | > 50 µg/mL | > 50 µg/mL | 1.52 µg/mL (≈ 2.93 µM) | – | > 50 µg/mL | > 50 µg/mL | 2.56 µg/mL (≈ 4.94 µM)
COc1ccc(OCC(=O)N2CCN(c3nc(N)nc4sc(-c5ccc(F)cc5)nc34)CC2)cc1 [Example 234, 1-(4-(5-amino-2-(4-fluorophenyl)thiazolo[5,4-d]pyrimidin-7-yl)piperazin-1-yl)-2-(4-methoxyphenoxy)ethanone] | 0.06 µg/mL (≈ 0.121 µM) | – | > 50 µg/mL | 29.3 µg/mL (≈ 59.2 µM) | 0.04 µg/mL (≈ 0.0809 µM) | 0.08 µg/mL (≈ 0.162 µM) | 25.5 µg/mL (≈ 51.6 µM) | 1.32 µg/mL (≈ 2.67 µM) | > 50 µg/mL | > 50 µg/mL | < 0.39 µg/mL | > 50 µg/mL | > 50 µg/mL | 30.1 µg/mL (≈ 60.9 µM) | –
COc1ccc(OCC(=O)N2CCN(c3nc(N)nc4sc(-c5ccc(C)cc5)nc34)CC2)cc1 [Example 294, 1-(4-(5-amino-2-p-tolylthiazolo[5,4-d]pyrimidin-7-yl)piperazin-1-yl)-2-(4-methoxyphenoxy)ethanone] | < 0.02 µg/mL | 0.02 µg/mL (≈ 0.0408 µM) | 29.1 µg/mL (≈ 59.4 µM) | 1.82 µg/mL (≈ 3.71 µM) | < 0.02 µg/mL | < 0.02 µg/mL | 0.43 µg/mL (≈ 0.876 µM) | < 0.39 µg/mL | 5.26 µg/mL (≈ 10.7 µM) | 20.6 µg/mL (≈ 41.9 µM) | < 0.39 µg/mL | – | > 50 µg/mL | 0.63 µg/mL (≈ 1.28 µM) | < 0.39 µg/mL
